For one compound, Solubility results are on record in patent publication US12103900B2, “Environment-friendly process for selective acylation of aminophenol” (LAXMI ORGANIC INDUSTRIES LTD, priority 2020, dated 2024).

A short description of this series: Analysis of solubility of paracetamol batches (Table 2). In kind it is physicochemical. The conditions noted are these: limit: soluble in ethanol (95%) and in acetone, sparingly soluble in water, very slightly soluble in dichloro-methane and ether. The protocol:
For the analysis of solubility, the paracetamol obtained using the present invention should be soluble in ethanol (95%) and soluble in acetone, sparingly soluble in water, very slightly soluble in dichloro-methane and ether. For identification purpose, the IR spectra should match the standard IR spectrum. The impurities were determined according to European and Indian pharmacopeia.

With `CC(=O)Nc1ccc(O)cc1` [Ex. 9, N-acetyl-para-aminophenol], the Solubility result is “Complies”.
